In ChEMBL document CHEMBL1132968, “Substituent effects on the antibacterial activity of nitrogen-carbon-linked (azolylphenyl)oxazolidinones with expanded activity against the fastidious gram-negative organisms Haemophilus influenzae and Moraxella catarrhalis” (2000) one finds MIC data, which are given here for 15 compounds.

Type in all cases: functional
One assay has as its system Haemophilus influenzae. The assay is described as follows: Inhibitory activity against Haemophilus influenzae UC30063.
Assay [1] deals with Staphylococcus epidermidis. The assay can be described thus: Inhibitory activity against Methicillin-resistant Staphylococcus epidermidis UC12084.
In the next assay the test system is Moraxella catarrhalis. The assay is described as follows: Inhibitory activity against Moraxella catarrhalis UC30610.
Assay [2] relates to Staphylococcus aureus. The assay is described as follows: Inhibitory activity against Methicillin-susceptible Staphylococcus aureus UC9213.
Assay [3] has as its system Staphylococcus aureus. The assay can be described thus: Inhibitory activity against Methicillin-resistant Staphylococcus aureus UC6685.
In the next assay the test system is Streptococcus pneumoniae. The assay is described as follows: Inhibitory activity against Streptococcus pneumoniae UC9912.
The subject of a further assay is Enterococcus faecalis. The assay can be described thus: Inhibitory activity against Enterococcus faecalis UC9217.

The structures appear in SMILES notation. Values after ≈ are worked out from the molar mass of the structure shown.

As to `CC(=O)NC[C@H]1CN(c2ccc(-n3cc(NC(C)=O)cn3)c(F)c2)C(=O)O1`, the MIC against Haemophilus influenzae was above 16 µg/mL; in assay [1] it was 2 µg/mL (≈ 5.33 µM); in the assay with Moraxella catarrhalis, above 16 µg/mL; in the assay on Staphylococcus aureus [2], above 16 µg/mL; against Staphylococcus aureus [3], 16 µg/mL (≈ 42.6 µM); in the assay with Streptococcus pneumoniae, 1 µg/mL (≈ 2.66 µM). Also, the MIC against Enterococcus faecalis was 16 µg/mL (≈ 42.6 µM).
Regarding `COC(=O)c1ncn(-c2ccc(N3C[C@H](CNC(C)=O)OC3=O)cc2F)n1`, the MIC against Haemophilus influenzae is above 16 µg/mL; in assay [1] it was 4 µg/mL (≈ 10.6 µM); in the assay with Moraxella catarrhalis, above 16 µg/mL; with Staphylococcus aureus [2], above 16 µg/mL; in the assay on Streptococcus pneumoniae, 4 µg/mL (≈ 10.6 µM); in the assay on Enterococcus faecalis, above 16 µg/mL.
Consider `CC(=O)NC[C@H]1CN(c2ccc(-n3cnc(NC(=O)Cc4ccccc4)n3)c(F)c2)C(=O)O1`, for which the MIC in the assay with Haemophilus influenzae is above 16 µg/mL; in assay [1] it was above 16 µg/mL; in the assay with Moraxella catarrhalis, above 16 µg/mL; in the assay with Staphylococcus aureus [2], above 16 µg/mL; against Streptococcus pneumoniae it was 2 µg/mL (≈ 4.42 µM); against Enterococcus faecalis, above 16 µg/mL.
Consider `CC(=O)NC[C@H]1CN(c2ccc(-n3ccc(C(C)O)c3)c(F)c2)C(=O)O1` (stereo partly specified), for which the MIC in the assay on Haemophilus influenzae was above 16 µg/mL; in assay [1], 4 µg/mL (≈ 11.1 µM); against Moraxella catarrhalis, above 16 µg/mL; with Staphylococcus aureus [2], 16 µg/mL (≈ 44.3 µM); in the assay with Staphylococcus aureus [3], 16 µg/mL (≈ 44.3 µM); against Streptococcus pneumoniae, 2 µg/mL (≈ 5.53 µM). In the assay on Enterococcus faecalis, this compound had an MIC of 8 µg/mL (≈ 22.1 µM).
For `CC(=O)NC[C@H]1CN(c2ccc(-n3nnc(C#N)n3)c(F)c2)C(=O)O1`, the MIC in the assay on Haemophilus influenzae worked out at 16 µg/mL (≈ 46.3 µM); in assay [1], 0.5 µg/mL (≈ 1.45 µM); in the assay on Moraxella catarrhalis, 4 µg/mL (≈ 11.6 µM); against Staphylococcus aureus [2] it was 2 µg/mL (≈ 5.79 µM); with Staphylococcus aureus [3], 1 µg/mL (≈ 2.9 µM); against Streptococcus pneumoniae, 0.5 µg/mL (≈ 1.45 µM). Further, the MIC against Enterococcus faecalis worked out at 2 µg/mL (≈ 5.79 µM).
Consider `CC(=O)NC[C@H]1CN(c2ccc(-n3ccc(CCCO)c3)c(F)c2)C(=O)O1`, for which the MIC in the assay on Haemophilus influenzae was above 16 µg/mL; in assay [1] it was 1 µg/mL (≈ 2.66 µM); with Moraxella catarrhalis, 8 µg/mL (≈ 21.3 µM); against Staphylococcus aureus [2], 4 µg/mL (≈ 10.7 µM); with Staphylococcus aureus [3], 4 µg/mL (≈ 10.7 µM); with Streptococcus pneumoniae it was 0.5 µg/mL (≈ 1.33 µM). The same compound gave an MIC in the assay with Enterococcus faecalis of 2 µg/mL (≈ 5.33 µM).
`COc1ccn(-c2ccc(N3C[C@H](CNC(C)=O)OC3=O)cc2F)n1`: the MIC against Haemophilus influenzae turned out to be 16 µg/mL (≈ 45.9 µM); in assay [1], 2 µg/mL (≈ 5.74 µM); in the assay on Moraxella catarrhalis, 16 µg/mL (≈ 45.9 µM); against Staphylococcus aureus [2], 8 µg/mL (≈ 23 µM); against Staphylococcus aureus [3] it was 8 µg/mL (≈ 23 µM); in the assay on Streptococcus pneumoniae, 2 µg/mL (≈ 5.74 µM). In the assay on Enterococcus faecalis, this compound showed an MIC of 16 µg/mL (≈ 45.9 µM).
As to `CC(=O)NC[C@H]1CN(c2ccc(-n3cnc(C=O)n3)c(F)c2)C(=O)O1`, the MIC against Haemophilus influenzae stood at 8 µg/mL (≈ 23 µM); in assay [1], 0.5 µg/mL (≈ 1.44 µM); in the assay with Moraxella catarrhalis, 8 µg/mL (≈ 23 µM); in the assay on Staphylococcus aureus [2], 4 µg/mL (≈ 11.5 µM); in the assay with Staphylococcus aureus [3] it was 2 µg/mL (≈ 5.76 µM); in the assay with Streptococcus pneumoniae, 0.5 µg/mL (≈ 1.44 µM). Also, in the assay on Enterococcus faecalis, the MIC turned out to be 4 µg/mL (≈ 11.5 µM).
With `CC(=O)NC[C@H]1CN(c2ccc(-n3nnc(C=O)n3)c(F)c2)C(=O)O1`, the MIC was 16 µg/mL (≈ 45.9 µM) in the assay with Haemophilus influenzae; 2 µg/mL (≈ 5.74 µM) in assay [1]; 16 µg/mL (≈ 45.9 µM) against Moraxella catarrhalis; 8 µg/mL (≈ 23 µM) in the assay with Staphylococcus aureus [2]; 4 µg/mL (≈ 11.5 µM) against Staphylococcus aureus [3]; 1 µg/mL (≈ 2.87 µM) against Streptococcus pneumoniae. The compound further showed an MIC in the assay with Enterococcus faecalis of 16 µg/mL (≈ 45.9 µM).
With `CC(=O)NC[C@H]1CN(c2ccc(-n3ccc(C#N)n3)c(F)c2)C(=O)O1`, the MIC was found to be 16 µg/mL (≈ 46.6 µM) in the assay on Haemophilus influenzae; 0.5 µg/mL (≈ 1.46 µM) in assay [1]; 8 µg/mL (≈ 23.3 µM) in the assay on Moraxella catarrhalis; 1 µg/mL (≈ 2.91 µM) against Staphylococcus aureus [2]; 1 µg/mL (≈ 2.91 µM) against Staphylococcus aureus [3]; 0.5 µg/mL (≈ 1.46 µM) with Streptococcus pneumoniae. Moreover, the MIC against Enterococcus faecalis amounted to 2 µg/mL (≈ 5.83 µM).
`CO/N=C(/C)c1ccn(-c2ccc(N3C[C@H](CNC(C)=O)OC3=O)cc2F)c1`: the MIC against Haemophilus influenzae is above 16 µg/mL; in assay [1] it was 1 µg/mL (≈ 2.57 µM); against Moraxella catarrhalis it was 8 µg/mL (≈ 20.6 µM); against Staphylococcus aureus [2] it was 4 µg/mL (≈ 10.3 µM); against Staphylococcus aureus [3], 2 µg/mL (≈ 5.15 µM); in the assay on Streptococcus pneumoniae, 0.5 µg/mL (≈ 1.29 µM). Also, the MIC in the assay with Enterococcus faecalis is 2 µg/mL (≈ 5.15 µM).
As to `CC(=O)NC[C@H]1CN(c2ccc(-n3cc(/C(C)=N\O)nn3)c(F)c2)C(=O)O1`, the MIC against Haemophilus influenzae was 16 µg/mL (≈ 42.5 µM); in assay [1], 2 µg/mL (≈ 5.31 µM); with Moraxella catarrhalis, 4 µg/mL (≈ 10.6 µM); in the assay with Staphylococcus aureus [2] it was 4 µg/mL (≈ 10.6 µM); in the assay with Staphylococcus aureus [3] it was 4 µg/mL (≈ 10.6 µM); against Streptococcus pneumoniae, 0.5 µg/mL (≈ 1.33 µM). Also, in the assay with Enterococcus faecalis, the MIC turned out to be 8 µg/mL (≈ 21.3 µM).
With `CC(=O)NC[C@H]1CN(c2ccc(-n3ccc(=O)[nH]3)c(F)c2)C(=O)O1`, the MIC was determined as 16 µg/mL (≈ 47.9 µM) against Haemophilus influenzae; 1 µg/mL (≈ 2.99 µM) in assay [1]; 8 µg/mL (≈ 23.9 µM) in the assay with Moraxella catarrhalis; 8 µg/mL (≈ 23.9 µM) with Staphylococcus aureus [2]; 8 µg/mL (≈ 23.9 µM) in the assay on Staphylococcus aureus [3]; 1 µg/mL (≈ 2.99 µM) against Streptococcus pneumoniae. In the assay on Enterococcus faecalis, this compound registered an MIC of 8 µg/mL (≈ 23.9 µM).
Consider `CC(=O)NC[C@H]1CN(c2ccc(-n3cnc(C(N)=O)n3)c(F)c2)C(=O)O1`, for which the MIC in the assay on Haemophilus influenzae was above 16 µg/mL; in assay [1] it was 16 µg/mL (≈ 44.2 µM); against Moraxella catarrhalis it was 16 µg/mL (≈ 44.2 µM); against Staphylococcus aureus [2], above 16 µg/mL; against Streptococcus pneumoniae it was 2 µg/mL (≈ 5.52 µM); with Enterococcus faecalis, above 16 µg/mL.
For the compound `CC(=O)NC[C@H]1CN(c2ccc(-n3ccc(NS(C)(=O)=O)n3)c(F)c2)C(=O)O1`, the MIC with Haemophilus influenzae is above 16 µg/mL; in assay [1], 4 µg/mL (≈ 9.72 µM); with Moraxella catarrhalis, above 16 µg/mL; in the assay with Staphylococcus aureus [2], above 16 µg/mL; against Streptococcus pneumoniae, 4 µg/mL (≈ 9.72 µM); against Enterococcus faecalis, above 16 µg/mL.
